In patent US20250320206A1, “STAT6 DEGRADERS” (Gilead Sciences, Inc., priority 2024, published 2025):

Experiments:
[1] = biological target: T1, STAT6 (Homo sapiens, UniProt P42226); assay: Stat6 Degrader Assay (HiBiT based, HeLa LgBiT clone 4.14); type: cell-based; conditions: HeLa LgBiT clone 4.14 HiBiT-STAT6, 4-24 h incubation; values given for compounds with >80% Emax; geometric mean; read-out: STAT6 degradation DC50
T1 construct: These cells express endogenous STAT6; host or cells: HeLa LgBiT clone 4.14
T1 sequence (P42226 1-847): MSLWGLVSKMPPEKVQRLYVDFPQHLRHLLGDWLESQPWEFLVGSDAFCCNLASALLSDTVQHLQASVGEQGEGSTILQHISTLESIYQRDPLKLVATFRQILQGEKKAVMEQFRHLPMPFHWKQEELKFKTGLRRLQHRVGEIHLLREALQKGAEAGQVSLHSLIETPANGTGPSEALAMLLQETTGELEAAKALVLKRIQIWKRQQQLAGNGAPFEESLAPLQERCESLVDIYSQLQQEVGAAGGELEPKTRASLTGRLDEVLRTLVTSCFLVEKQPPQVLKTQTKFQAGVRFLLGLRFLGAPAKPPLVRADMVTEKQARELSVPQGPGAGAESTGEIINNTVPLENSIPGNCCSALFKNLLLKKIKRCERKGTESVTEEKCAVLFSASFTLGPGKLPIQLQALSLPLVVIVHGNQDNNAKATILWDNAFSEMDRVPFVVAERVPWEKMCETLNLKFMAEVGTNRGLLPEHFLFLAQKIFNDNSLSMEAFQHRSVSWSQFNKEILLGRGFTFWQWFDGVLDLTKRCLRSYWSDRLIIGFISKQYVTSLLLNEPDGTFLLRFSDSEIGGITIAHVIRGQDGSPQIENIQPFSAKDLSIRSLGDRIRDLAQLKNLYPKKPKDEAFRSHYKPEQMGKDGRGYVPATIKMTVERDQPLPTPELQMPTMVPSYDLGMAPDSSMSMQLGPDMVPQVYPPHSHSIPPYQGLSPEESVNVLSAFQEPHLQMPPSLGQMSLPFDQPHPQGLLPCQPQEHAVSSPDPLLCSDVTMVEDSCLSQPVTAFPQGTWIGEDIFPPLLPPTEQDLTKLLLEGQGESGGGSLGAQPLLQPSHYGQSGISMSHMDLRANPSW
How it was run: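 Luminescence from HiBiT-STAT6 complementing stably expressed LgBiT in HeLa clone 4.14 reports remaining STAT6 protein. Cells (5000/well) exposed to compound for 4-24 h at 37° C; read 0.5 h after Nano-Glo addition. 100% degradation window set with 50 μM terfenadine; percent degradation plotted against concentration.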

[2] = system: Eotaxin-3 release in human whole blood stimulated with IL-4; assay: Human Whole Blood Eotaxin-3 Assay (IL-4 stimulated eotaxin-3 release); type: cell-based; conditions: IL-4 stimulation, 48 h, values given for compounds with >80% Emax, geometric mean
How it was run: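 Eotaxin-3 (CCL26) release measured by MSD kit in plasma supernatant after 48 h IL-4 stimulation ([…]) of human whole blood. Compounds added in triplicate 4-fold dilutions 2 h before stimulation; 0.5% DMSO final, 37° C, 5% CO2.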

DC50 [1] [nM]	EC50 [2] [nM]	Structure (SMILES)
0.2	1.3	CNc1cc(=O)n(-c2ccnc3c2cc([C@H](C)N2CC=C(c4c(C)cc(C(=O)N(C)c5ccc(C6CCN(Cc7ccc8c(c7)C(C)(C)C(=O)N8C7CCC(=O)NC7=O)CC6)cc5)cc4F)CC2)n3C)cc1F (stereo partly drawn) [Example 3u233, N-(4-(1-((1-(2,6-dioxopiperidin-3-yl)-3,3-dimethyl-2-oxoindolin-5-yl)methyl)piperidin-4-yl)phenyl)-3-fluoro-4-(1-((S)-1-(4-(5-fluoro-4-(methylamino)-2-oxopyridin-1 (2H)-yl)-1-methyl-1H-pyrrolo[2,3-b]pyridin-2-yl)ethyl)-1,2,3,6-tetrahydropyridin-4-yl)-N,5-dimethylbenzamide]
5.6	7.7	CNc1ccn(-c2ccnc3c2cc(CN2CC=C(c4c(C)cc(C(=O)N5CCC(CN6CCN(Cc7ccc8c(c7)C(C)(C)C(=O)N8C7CCC(=O)NC7=O)C[C@@H]6C)CC5)cc4F)CC2)n3C)c(=O)c1 (stereo partly drawn) [Example 3u178, 3-(5-(((S)-4-((1-(3-fluoro-5-methyl-4-(1-((1-methyl-4-(4-(methylamino)-2-oxopyridin-1 (2H)-yl)-1H-pyrrolo[2,3-b]pyridin-2-yl)methyl)-1,2,3,6-tetrahydropyridin-4-yl)benzoyl)piperidin-4-yl)methyl)-3-methylpiperazin-1-yl)methyl)-3,3-dimethyl-2-oxoindolin-1-yl)piperidine-2,6-dione]
0.2	0.2	CNc1cc(=O)n(-c2ccnc3c2cc([C@H](C)N2CC=C(c4c(C)cc(C(=O)N(C)c5ccc(N6CCC(Cc7ccc8c(c7)n(C)c(=O)n8[C@H]7CCC(=O)NC7=O)CC6)nc5)cc4F)CC2)n3C)cc1F (single isomer, unassigned) [Example 3u242]
18.6	12.4	CNc1cc(=O)n(-c2ccnc3c2cc(CN2CCC(c4c(F)cc(C(=O)N5CCC(CN6CCN(Cc7cc8c(cc7F)N([C@@H]7CCC(=O)NC7=O)C(=O)C87CC7)CC6)CC5)cc4F)CC2)n3C)cc1F (single isomer, unassigned) [Example 3u95]
8.4	18.6	CNc1ccn(-c2ccnc3c2cc(CN2CCC(c4c(F)cc(C(=O)N5CCC(CN6CCN(Cc7ccc8c(c7)C(C)(C)C(=O)N8[C@@H]7CCC(=O)NC7=O)CC6)CC5)cc4F)CC2)n3C)c(=O)c1 (single isomer, unassigned) [Example 3u18]
8.7	1.1	CNc1cc(=O)n(-c2ccnc3c2cc([C@H](C)N2CC=C(c4c(F)cc(C(=O)N5CCC(CN6CCN(Cc7ccc8c(c7)n(C)c(=O)n8[C@@H]7CCC(=O)NC7=O)CC6)CC5)cc4F)CC2)n3C)cc1F (single isomer, unassigned) [Example 3u53]
1.1	1.7	CNc1cc(=O)n(-c2ccnc3c2cc([C@H](C)N2CC=C(c4c(C)cc(C(=O)N5CCC(CN6CCN(Cc7ccc8c(c7)C7(CC7)C(=O)N8[C@H]7CCC(=O)NC7=O)C[C@@H]6C)CC5)cc4F)CC2)n3C)cc1F (single isomer, unassigned) [Example 3u99]
0.2	0.3	CNc1ccn(-c2ccnc3c2cc([C@H](C)N2CC=C(c4c(C)cc(C(=O)N5CCC(CN6CCN(Cc7ccc8c(c7)n(C)c(=O)n8C7CCC(=O)NC7=O)C[C@@H]6C)CC5)cc4F)CC2)n3C)c(=O)c1 (stereo partly drawn) [Example 3u32, 3-(5-(((S)-4-((1-(3-fluoro-5-methyl-4-(1-((S)-1-(1-methyl-4-(4-(methylamino)-2-oxopyridin-1 (2H)-yl)-1H-pyrrolo[2,3-b]pyridin-2-yl)ethyl)-1,2,3,6-tetrahydropyridin-4-yl)benzoyl)-piperidin-4-yl)methyl)-3-methylpiperazin-1-yl)methyl)-3-methyl-2-oxo-2,3-dihydro-1H-benzo[d]-imidazol-1-yl)piperidine-2,6-dione]
1.2	1.2	CNc1cc(=O)n(-c2ccnc3c2cc(CN2CCC(c4c(F)cc(C(=O)N5CCC(CN6CCN(Cc7ccc8c(c7)n(C)c(=O)n8[C@@H]7CCC(=O)NC7=O)C[C@@H]6C)CC5)cc4F)CC2)n3C)cc1F (single isomer, unassigned) [Example 3u62]
0.8	2.2	CNc1cc(=O)n(-c2ccnc3c2cc([C@H](C)N2CC=C(c4c(C)cc(C(=O)N5CCC(CN6CCN(Cc7ccc8c(c7)n(C)c(=O)n8[C@@H]7CCC(=O)NC7=O)CC6)CC5)cc4F)CC2)n3C)cc1F (single isomer, unassigned) [Example 3u15]
0.3	0.5	CNc1ccn(-c2ccnc3c2cc([C@H](C)N2CC=C(c4c(C)cc(C(=O)N5CCC(CN6CCN(Cc7ccc8c(c7)n(C)c(=O)n8C7CCC(=O)NC7=O)CC6)CC5)cc4F)CC2)n3C)c(=O)c1 (stereo partly drawn) [Example 3u155, 3-(5-((4-((1-(3-fluoro-5-methyl-4-(1-((S)-1-(1-methyl-4-(4-(methylamino)-2-oxopyridin-1 (2H)-yl)-1H-pyrrolo[2,3-b]pyridin-2-yl)ethyl)-1,2,3,6-tetrahydropyridin-4-yl)benzoyl)piperidin-4-yl)methyl)piperazin-1-yl)methyl)-3-methyl-2-oxo-2,3-dihydro-1H-benzo[d]imidazol-1-yl)piperidine-2,6-dione]
0.7	0.4	CNc1ccn(-c2ccnc3c2cc([C@H](C)N2CC=C(c4c(C)cc(C(=O)N5CCC(CN6CCN(c7cc8c(cc7F)n(C7CCC(=O)NC7=O)c(=O)n8C)CC6)CC5)cc4F)CC2)n3C)c(=O)c1 (stereo partly drawn) [Example 3u310, 3-(6-fluoro-5-(4-((1-(3-fluoro-5-methyl-4-(1-((S)-1-(1-methyl-4-(4-(methylamino)-2-oxopyridin-1 (2H)-yl)-1H-pyrrolo[2,3-b]pyridin-2-yl)ethyl)-1,2,3,6-tetrahydropyridin-4-yl)benzoyl)-piperidin-4-yl)methyl)piperazin-1-yl)-3-methyl-2-oxo-2,3-dihydro-1H-benzo[d]imidazol-1-yl)-piperidine-2,6-dione]
1	0.8	CNc1ccn(-c2ccnc3c2cc([C@H](C)N2CC=C(c4c(C)cc(C(=O)N5CCC(CN6CCN(c7ccc8c(c7)n(C)c(=O)n8[C@H]7CCC(=O)NC7=O)CC6)CC5)cc4F)CC2)n3C)c(=O)c1 (single isomer, unassigned) [Example 3u293]
8.7	6	Cc1cc(C(=O)N2CCC(CN3CCN(Cc4ccc5c(c4)C4(CC4)C(=O)N5C4CCC(=O)NC4=O)C[C@@H]3C)CC2)cc(F)c1C1=CCN([C@@H](C)c2cc3c(-n4cc(F)c5c(c4=O)CCN5)ccnc3n2C)CC1 (stereo partly drawn) [Example 3u116, 3-(5′-(((S)-4-((1-(3-fluoro-4-(1-((S)-1-(4-(7-fluoro-4-oxo-1,2,3,4-tetrahydro-5H-pyrrolo[3,2-c]pyridin-5-yl)-1-methyl-1H-pyrrolo[2,3-b]pyridin-2-yl)ethyl)-1,2,3,6-tetrahydropyridin-4-yl)-5-methylbenzoyl)piperidin-4-yl)methyl)-3-methylpiperazin-1-yl)methyl)-2′-oxospiro[cyclopropane-1,3′-indolin]-1′-yl)piperidine-2,6-dione]
11.2	12.1	CNc1ccn(-c2ccnc3c2cc(CN2CCC(c4c(F)cc(C(=O)N5CCC(CN6CCN(Cc7ccc8c(c7)C(C)(C)C(=O)N8C7CCC(=O)NC7=O)CC6)CC5)cc4F)CC2)n3C)c(=O)c1 (centres unmarked) [Example 3u16, 3-(5-((4-((1-(3,5-difluoro-4-(1-((1-methyl-4-(4-(methylamino)-2-oxopyridin-1 (2H)-yl)-1H-pyrrolo[2,3-b]pyridin-2-yl)methyl)piperidin-4-yl)benzoyl)piperidin-4-yl)methyl)piperazin-1-yl)-methyl)-3,3-dimethyl-2-oxoindolin-1-yl)piperidine-2,6-dione]
1.8	1.9	CNc1cc(=O)n(-c2ccnc3c2cc([C@H](C)N2CC=C(c4c(F)cc(C(=O)N5CCC(CN6CCN(Cc7ccc8c(c7)n(C)c(=O)n8C7CCC(=O)NC7=O)CC6)CC5)cc4F)CC2)n3C)cc1F (mixture of isomers) [Example 3u51, 3-(5-((4-((1-(3,5-difluoro-4-(1-((S)-1-(4-(5-fluoro-4-(methylamino)-2-oxopyridin-1 (2H)-yl)-1-methyl-1H-pyrrolo[2,3-b]pyridin-2-yl)ethyl)-1,2,3,6-tetrahydropyridin-4-yl)benzoyl)piperidin-4-yl)methyl)piperazin-1-yl)methyl)-3-methyl-2-oxo-2,3-dihydro-1H-benzo[d]imidazol-1-yl)piperidine-2,6-dione]
